# Measured values as given in the supplement of paper PMC6045584.
# ± gives the standard deviation of the averaged measurements.
# Compound: CCC1=C[C@@H]2CN(C1)Cc1c([nH]c3ccccc13)[C@@](C(=O)OC)(c1cc3c(cc1OC)N(C)[C@H]1[C@@](O)(C(=O)OC)[C@H](OC(C)=O)[C@]4(CC)C=CCN5CC[C@]31[C@@H]54)C2 [VINORELBINE]
# Test: surviving fraction relative to DMSO-only wells; higher = less growth inhibition
# Settings: 0.5 nM; exposure time: 5 days
# Procedure, shortened: (§1)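 Luminescence normalised to the median of DMSO-only wells defines surviving fraction, with viability read by CellTiter-Glo. Signal was recorded after 10 minutes at room temperature, once log-phase tumour cell lines seeded at 250–500 cells per well in 384-well plates had spent 24 hours settling and then five days under continuous exposure to inhibitors at 0.5, 1, 5, 10, 50, 100, 500 and 1000 nM.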
row,Test System,surviving fraction
1,SYO1 SYNOVIAL,1.03 ± 0.021
2,T47D BREAST,1.03 ± 0.026
3,U2OS BONE,1.09 ± 0.022
4,VCAP PROSTATE,1.1 ± 0.096
5,VP229 BREAST,1.13 ± 0.18
6,YAMATO SYNOVIAL,1.04 ± 0.06
7,ZR751 BREAST,1.17 ± 0.19

# Same assay, conditions: 1 nM; exposure time: 5 days
row,Test System,surviving fraction
1,SYO1 SYNOVIAL,1 ± 0.027
2,T47D BREAST,1.01 ± 0.03
3,U2OS BONE,1.03 ± 0.044
4,VCAP PROSTATE,1.02 ± 0.035
5,VP229 BREAST,0.962 ± 0.062
6,YAMATO SYNOVIAL,1.08 ± 0.042
7,ZR751 BREAST,1.07 ± 0.1

# Same assay, conditions: 5 nM; exposure time: 5 days
row,Test System,surviving fraction
1,SYO1 SYNOVIAL,0.818 ± 0.056
2,T47D BREAST,0.735 ± 0.026
3,U2OS BONE,0.993 ± 0.032
4,VCAP PROSTATE,0.64 ± 0.04
5,VP229 BREAST,0.958 ± 0.098
6,YAMATO SYNOVIAL,1 ± 0.024
7,ZR751 BREAST,0.7 ± 0.1

# Same assay, conditions: 10 nM; exposure time: 5 days
row,Test System,surviving fraction
1,SYO1 SYNOVIAL,0.429 ± 0.062
2,T47D BREAST,0.609 ± 0.023
3,U2OS BONE,0.954 ± 0.04
4,VCAP PROSTATE,0.299 ± 0.031
5,VP229 BREAST,0.8 ± 0.048
6,YAMATO SYNOVIAL,0.646 ± 0.05
7,ZR751 BREAST,0.472 ± 0.07

# Same assay, conditions: 50 nM; exposure time: 5 days
row,Test System,surviving fraction
1,SYO1 SYNOVIAL,0.114 ± 0.011
2,T47D BREAST,0.356 ± 0.0061
3,U2OS BONE,0.569 ± 0.036
4,VCAP PROSTATE,0.0883 ± 0.012
5,VP229 BREAST,0.351 ± 0.043
6,YAMATO SYNOVIAL,0.391 ± 0.036
7,ZR751 BREAST,0.492 ± 0.054

# Same assay, conditions: 100 nM; exposure time: 5 days
row,Test System,surviving fraction
1,SYO1 SYNOVIAL,0.0666 ± 0.0041
2,T47D BREAST,0.341 ± 0.016
3,U2OS BONE,0.273 ± 0.023
4,VCAP PROSTATE,0.0827 ± 0.021
5,VP229 BREAST,0.297 ± 0.016
6,YAMATO SYNOVIAL,0.36 ± 0.014
7,ZR751 BREAST,0.431 ± 0.057

# Same assay, conditions: 500 nM; exposure time: 5 days
row,Test System,surviving fraction
1,SYO1 SYNOVIAL,0.052 ± 0.0061
2,T47D BREAST,0.369 ± 0.025
3,U2OS BONE,0.116 ± 0.0097
4,VCAP PROSTATE,0.122 ± 0.0049
5,VP229 BREAST,0.275 ± 0.012
6,YAMATO SYNOVIAL,0.346 ± 0.015
7,ZR751 BREAST,0.297 ± 0.064

# Same assay, conditions: 1000 nM; exposure time: 5 days
row,Test System,surviving fraction
1,SYO1 SYNOVIAL,0.0546 ± 0.005
2,T47D BREAST,0.373 ± 0.013
3,U2OS BONE,0.0883 ± 0.012
4,VCAP PROSTATE,0.148 ± 0.022
5,VP229 BREAST,0.245 ± 0.014
6,YAMATO SYNOVIAL,0.397 ± 0.0053
7,ZR751 BREAST,0.263 ± 0.041

# Compound: CN(Cc1cnc2nc(N)nc(N)c2n1)c1ccc(C(=O)N[C@@H](CCC(=O)O)C(=O)O)cc1 [METHOTREXATE]
# Test: as above
# Settings: 0.5 nM; exposure time: 5 days
# Procedure, shortened: as §1
row,Test System,surviving fraction
1,SYO1 SYNOVIAL,0.991 ± 0.03
2,T47D BREAST,1.12 ± 0.013
3,U2OS BONE,1 ± 0.045
4,VCAP PROSTATE,0.961 ± 0.06
5,VP229 BREAST,1.13 ± 0.076
6,YAMATO SYNOVIAL,1.18 ± 0.13
7,ZR751 BREAST,1 ± 0.11

# Same assay, conditions: 1 nM; exposure time: 5 days
row,Test System,surviving fraction
1,SYO1 SYNOVIAL,0.983 ± 0.047
2,T47D BREAST,1.12 ± 0.073
3,U2OS BONE,1.02 ± 0.039
4,VCAP PROSTATE,0.984 ± 0.036
5,VP229 BREAST,1.12 ± 0.15
6,YAMATO SYNOVIAL,1.05 ± 0.089
7,ZR751 BREAST,1.1 ± 0.14

# Same assay, conditions: 5 nM; exposure time: 5 days
row,Test System,surviving fraction
1,SYO1 SYNOVIAL,0.984 ± 0.041
2,T47D BREAST,1.07 ± 0.025
3,U2OS BONE,1.04 ± 0.051
4,VCAP PROSTATE,1.02 ± 0.094
5,VP229 BREAST,1.14 ± 0.05
6,YAMATO SYNOVIAL,1.25 ± 0.17
7,ZR751 BREAST,0.975 ± 0.057

# Same assay, conditions: 10 nM; exposure time: 5 days
row,Test System,surviving fraction
1,SYO1 SYNOVIAL,0.991 ± 0.074
2,T47D BREAST,0.9393 ± 0.0076
3,U2OS BONE,0.31 ± 0.0076
4,VCAP PROSTATE,1.07 ± 0.11
5,VP229 BREAST,1.15 ± 0.13
6,YAMATO SYNOVIAL,0.532 ± 0.058
7,ZR751 BREAST,1.29 ± 0.21

# Same assay, conditions: 50 nM; exposure time: 5 days
row,Test System,surviving fraction
1,SYO1 SYNOVIAL,0.419 ± 0.024
2,T47D BREAST,0.562 ± 0.033
3,U2OS BONE,0.672 ± 0.01
4,VCAP PROSTATE,1.03 ± 0.079
5,VP229 BREAST,1.25 ± 0.15
6,YAMATO SYNOVIAL,0.685 ± 0.065
7,ZR751 BREAST,0.715 ± 0.077

# Same assay, conditions: 100 nM; exposure time: 5 days
row,Test System,surviving fraction
1,SYO1 SYNOVIAL,0.285 ± 0.0055
2,T47D BREAST,0.406 ± 0.065
3,U2OS BONE,0.669 ± 0.014
4,VCAP PROSTATE,1.07 ± 0.062
5,VP229 BREAST,1.08 ± 0.12
6,YAMATO SYNOVIAL,0.587 ± 0.05
7,ZR751 BREAST,0.69 ± 0.088

# Same assay, conditions: 500 nM; exposure time: 5 days
row,Test System,surviving fraction
1,SYO1 SYNOVIAL,0.284 ± 0.02
2,T47D BREAST,0.33 ± 0.025
3,U2OS BONE,0.636 ± 0.016
4,VCAP PROSTATE,1.02 ± 0.078
5,VP229 BREAST,1.12 ± 0.12
6,YAMATO SYNOVIAL,0.584 ± 0.046
7,ZR751 BREAST,0.707 ± 0.044

# Same assay, conditions: 1000 nM; exposure time: 5 days
row,Test System,surviving fraction
1,SYO1 SYNOVIAL,0.281 ± 0.011
2,T47D BREAST,0.339 ± 0.024
3,U2OS BONE,0.625 ± 0.026
4,VCAP PROSTATE,1 ± 0.058
5,VP229 BREAST,1.14 ± 0.053
6,YAMATO SYNOVIAL,0.604 ± 0.048
7,ZR751 BREAST,0.741 ± 0.011
